Results reported in US9326506B2, “Preparation method, agricultural composition and applications of natural brassinolide analogs” (CHENGDU NEWSUN CROPSCIENCE CO., LTD, priority 2012, dated 2016).

Test system: rice
Test: Low temperature assay on rice seedlings
Format: in vivo
Procedure: According to a low temperature assay, we measured parameters including plant height, number of leaf, area of leaf, number of tiller, weight of root at low temperature to completely determine effects of the natural brassinolide analogues on the resistance to low temperature of a plant.
The natural brassinolide analogues, BR1, BR2, BR3, BR4, BR5 and BR6, used herein, were those prepared by the method of Example 1. Respectively the analogues were dissolved into 95% (V/V) ethanol solution, and then diluted with pure water to 1 mg/L, 0.1 mg/L, 0.01 mg/L, 0.001 mg/L and 0.0001 mg/L. In addition, pure water was used as a control.
After rice seeds were disinfected by using 5% sodium hypochlorite solution treatment, they were rinsed with distilled water until their pH>7, placed into a petri dish in a dark incubator, and cultured by using water at 30° C.±2° C. for 9 days. Then respectively the nine-day-old etiolated seedlings of rice were immersed in the above solutions containing different concentrations of the natural brassinolide analogues or pure water, and cultured at the temperature of 1° C., 2° C., 3° C., 4° C. and 5° C. for 24 hr. The parameters including plant height, area of leaf and weight of root after 3, 6, 9 and 12 days and number of leaf and number of tiller after 12 days were measured.

CC[C@@H](C(C)C)[C@@H](O)[C@H](O)[C@@H](C)[C@H]1CCC2C3COC(=O)C4C[C@H](O)[C@H](O)C[C@]4(C)C3CC[C@@]21C (stereo partly shown) [BR2]
10.2 cm^2: Area of leaf (0.0001 mg/l, 5 °C, 3 days) | Area of leaf (0.001 mg/l, 5 °C, 3 days) | Area of leaf (0.01 mg/l, 3 °C, 3 days)
7 cm: Height (0.0001 mg/l, 1 °C, 9 days) | Height (0.0001 mg/l, 2 °C, 6 days) | Height (0.001 mg/l, 3 °C, 3 days)
13.2 cm^2: Area of leaf (0.0001 mg/l, 3 °C, 12 days)
11.3 cm^2: Area of leaf (0.001 mg/l, 1 °C, 6 days)
7.0 cm: Height (0.0001 mg/l, 5 °C, 3 days) | Height (0.01 mg/l, 1 °C, 3 days)
7.2 cm: Height (0.0001 mg/l, 1 °C, 12 days) | Height (0.0001 mg/l, 3 °C, 6 days) | Height (0.001 mg/l, 5 °C, 3 days) | Height (0.01 mg/l, 1 °C, 6 days) | Height (0.01 mg/l, 2 °C, 6 days) | Height (0.01 mg/l, 3 °C, 6 days)
12.3 cm^2: Area of leaf (0.0001 mg/l, 3 °C, 9 days)
12.1 cm^2: Area of leaf (0.001 mg/l, 2 °C, 9 days) | Area of leaf (0.001 mg/l, 4 °C, 6 days)
3: Number of leaf (0.0001 mg/l, 1 °C, 12 days) | Number of tiller (0.0001 mg/l, 1 °C, 12 days) | Number of leaf (0.0001 mg/l, 2 °C, 12 days) | Number of tiller (0.0001 mg/l, 2 °C, 12 days) | Number of leaf (0.0001 mg/l, 3 °C, 12 days) | Number of leaf (0.0001 mg/l, 4 °C, 12 days) | Number of leaf (0.0001 mg/l, 5 °C, 12 days) | Number of leaf (0.001 mg/l, 1 °C, 12 days) | Number of tiller (0.001 mg/l, 1 °C, 12 days) | Number of leaf (0.001 mg/l, 2 °C, 12 days) | Number of tiller (0.001 mg/l, 2 °C, 12 days) | Number of leaf (0.001 mg/l, 3 °C, 12 days) | Number of leaf (0.001 mg/l, 4 °C, 12 days) | Number of leaf (0.001 mg/l, 5 °C, 12 days) | Number of tiller (0.001 mg/l, 5 °C, 12 days) | Number of leaf (0.01 mg/l, 1 °C, 12 days) | Number of tiller (0.01 mg/l, 1 °C, 12 days) | Number of leaf (0.01 mg/l, 2 °C, 12 days) | Number of tiller (0.01 mg/l, 2 °C, 12 days)
11.8 cm^2: Area of leaf (0.0001 mg/l, 3 °C, 6 days)
2.8 g: Weight of root (0.0001 mg/l, 1 °C, 3 days) | Weight of root (0.0001 mg/l, 2 °C, 3 days) | Weight of root (0.001 mg/l, 1 °C, 3 days) | Weight of root (0.001 mg/l, 2 °C, 3 days) | Weight of root (0.001 mg/l, 5 °C, 3 days) | Weight of root (0.01 mg/l, 1 °C, 3 days) | Weight of root (0.01 mg/l, 2 °C, 3 days)
3.2 g: Weight of root (0.0001 mg/l, 2 °C, 9 days) | Weight of root (0.001 mg/l, 2 °C, 9 days) | Weight of root (0.01 mg/l, 2 °C, 12 days)
3.0 g: Weight of root (0.0001 mg/l, 2 °C, 6 days) | Weight of root (0.0001 mg/l, 5 °C, 12 days) | Weight of root (0.001 mg/l, 2 °C, 6 days) | Weight of root (0.001 mg/l, 5 °C, 9 days) | Weight of root (0.01 mg/l, 1 °C, 6 days)
7.4 cm: Height (0.0001 mg/l, 2 °C, 12 days) | Height (0.0001 mg/l, 3 °C, 9 days) | Height (0.0001 mg/l, 5 °C, 6 days) | Height (0.001 mg/l, 3 °C, 12 days) | Height (0.01 mg/l, 1 °C, 9 days)
11.7 cm^2: Area of leaf (0.0001 mg/l, 2 °C, 6 days) | Area of leaf (0.0001 mg/l, 4 °C, 6 days)
13.1 cm^2: Area of leaf (0.0001 mg/l, 1 °C, 12 days) | Area of leaf (0.001 mg/l, 2 °C, 12 days)
2.9 g: Weight of root (0.0001 mg/l, 3 °C, 9 days) | Weight of root (0.0001 mg/l, 3 °C, 12 days) | Weight of root (0.0001 mg/l, 4 °C, 9 days) | Weight of root (0.0001 mg/l, 4 °C, 12 days) | Weight of root (0.0001 mg/l, 5 °C, 9 days) | Weight of root (0.001 mg/l, 3 °C, 9 days) | Weight of root (0.001 mg/l, 3 °C, 12 days) | Weight of root (0.001 mg/l, 4 °C, 9 days) | Weight of root (0.001 mg/l, 4 °C, 12 days) | Weight of root (0.001 mg/l, 5 °C, 6 days)
2.5 g: Weight of root (0.0001 mg/l, 3 °C, 3 days) | Weight of root (0.0001 mg/l, 4 °C, 3 days) | Weight of root (0.0001 mg/l, 5 °C, 3 days) | Weight of root (0.001 mg/l, 3 °C, 3 days) | Weight of root (0.001 mg/l, 4 °C, 3 days) | Weight of root (0.01 mg/l, 3 °C, 3 days)
6.9 cm: Height (0.0001 mg/l, 1 °C, 6 days) | Height (0.0001 mg/l, 3 °C, 3 days) | Height (0.0001 mg/l, 4 °C, 3 days) | Height (0.001 mg/l, 1 °C, 3 days) | Height (0.001 mg/l, 2 °C, 3 days)
3.4 g: Weight of root (0.0001 mg/l, 1 °C, 9 days) | Weight of root (0.001 mg/l, 1 °C, 9 days) | Weight of root (0.01 mg/l, 1 °C, 9 days)
2.6 g: Weight of root (0.0001 mg/l, 3 °C, 6 days) | Weight of root (0.0001 mg/l, 4 °C, 6 days) | Weight of root (0.001 mg/l, 3 °C, 6 days) | Weight of root (0.001 mg/l, 4 °C, 6 days) | Weight of root (0.01 mg/l, 3 °C, 6 days)
11.2 cm^2: Area of leaf (0.0001 mg/l, 1 °C, 6 days)
13 cm^2: Area of leaf (0.0001 mg/l, 2 °C, 12 days) | Area of leaf (0.0001 mg/l, 4 °C, 9 days) | Area of leaf (0.001 mg/l, 1 °C, 12 days) | Area of leaf (0.001 mg/l, 3 °C, 12 days) | Area of leaf (0.001 mg/l, 4 °C, 9 days)
3.7 g: Weight of root (0.001 mg/l, 5 °C, 12 days)
7.8 cm: Height (0.001 mg/l, 5 °C, 9 days)
10.1 cm^2: Area of leaf (0.001 mg/l, 1 °C, 3 days) | Area of leaf (0.01 mg/l, 1 °C, 3 days) | Area of leaf (0.01 mg/l, 2 °C, 3 days)
12.4 cm^2: Area of leaf (0.0001 mg/l, 1 °C, 9 days) | Area of leaf (0.0001 mg/l, 2 °C, 9 days) | Area of leaf (0.001 mg/l, 3 °C, 9 days) | Area of leaf (0.01 mg/l, 1 °C, 9 days)
11.1 cm^2: Area of leaf (0.01 mg/l, 2 °C, 6 days)
7.1 cm: Height (0.0001 mg/l, 2 °C, 9 days) | Height (0.001 mg/l, 1 °C, 6 days) | Height (0.001 mg/l, 1 °C, 9 days) | Height (0.001 mg/l, 2 °C, 6 days) | Height (0.001 mg/l, 2 °C, 9 days) | Height (0.001 mg/l, 3 °C, 6 days) | Height (0.001 mg/l, 4 °C, 3 days) | Height (0.01 mg/l, 2 °C, 3 days) | Height (0.01 mg/l, 3 °C, 3 days)
16 cm^2: Area of leaf (0.001 mg/l, 5 °C, 12 days)
8 cm: Height (0.001 mg/l, 5 °C, 12 days)
3.9 g: Weight of root (0.0001 mg/l, 1 °C, 12 days) | Weight of root (0.0001 mg/l, 2 °C, 12 days) | Weight of root (0.001 mg/l, 1 °C, 12 days) | Weight of root (0.001 mg/l, 2 °C, 12 days) | Weight of root (0.01 mg/l, 1 °C, 12 days)
14 cm^2: Area of leaf (0.0001 mg/l, 5 °C, 12 days) | Area of leaf (0.001 mg/l, 5 °C, 6 days)
7.5 cm: Height (0.0001 mg/l, 3 °C, 12 days) | Height (0.0001 mg/l, 4 °C, 9 days) | Height (0.0001 mg/l, 5 °C, 9 days) | Height (0.001 mg/l, 4 °C, 9 days) | Height (0.001 mg/l, 4 °C, 12 days) | Height (0.001 mg/l, 5 °C, 6 days) | Height (0.01 mg/l, 1 °C, 12 days) | Height (0.01 mg/l, 2 °C, 9 days) | Height (0.01 mg/l, 2 °C, 12 days)
13.5 cm^2: Area of leaf (0.001 mg/l, 4 °C, 12 days)
10 cm^2: Area of leaf (0.0001 mg/l, 2 °C, 3 days) | Area of leaf (0.0001 mg/l, 3 °C, 3 days) | Area of leaf (0.0001 mg/l, 4 °C, 3 days) | Area of leaf (0.001 mg/l, 3 °C, 3 days) | Area of leaf (0.001 mg/l, 4 °C, 3 days)
13.6 cm^2: Area of leaf (0.0001 mg/l, 5 °C, 9 days) | Area of leaf (0.01 mg/l, 1 °C, 12 days)
7.7 cm: Height (0.0001 mg/l, 5 °C, 12 days)
7.3 cm: Height (0.0001 mg/l, 4 °C, 6 days) | Height (0.001 mg/l, 1 °C, 12 days) | Height (0.001 mg/l, 2 °C, 12 days) | Height (0.001 mg/l, 3 °C, 9 days) | Height (0.001 mg/l, 4 °C, 6 days)
12 cm^2: Area of leaf (0.0001 mg/l, 5 °C, 6 days) | Area of leaf (0.001 mg/l, 3 °C, 6 days) | Area of leaf (0.01 mg/l, 3 °C, 6 days)
12.6 cm^2: Area of leaf (0.001 mg/l, 1 °C, 9 days) | Area of leaf (0.01 mg/l, 3 °C, 9 days)
2: Number of tiller (0.0001 mg/l, 3 °C, 12 days) | Number of tiller (0.0001 mg/l, 4 °C, 12 days) | Number of tiller (0.0001 mg/l, 5 °C, 12 days) | Number of tiller (0.001 mg/l, 3 °C, 12 days) | Number of tiller (0.001 mg/l, 4 °C, 12 days)
11.6 cm^2: Area of leaf (0.001 mg/l, 2 °C, 6 days) | Area of leaf (0.01 mg/l, 1 °C, 6 days)
3.1 g: Weight of root (0.0001 mg/l, 1 °C, 6 days) | Weight of root (0.001 mg/l, 1 °C, 6 days) | Weight of root (0.01 mg/l, 2 °C, 6 days) | Weight of root (0.01 mg/l, 2 °C, 9 days)
7.6 cm: Height (0.0001 mg/l, 4 °C, 12 days)
2.7 g: Weight of root (0.0001 mg/l, 5 °C, 6 days)
9.8 cm^2: Area of leaf (0.0001 mg/l, 1 °C, 3 days) | Area of leaf (0.001 mg/l, 2 °C, 3 days)
6.8 cm: Height (0.0001 mg/l, 1 °C, 3 days) | Height (0.0001 mg/l, 2 °C, 3 days)
13.4 cm^2: Area of leaf (0.0001 mg/l, 4 °C, 12 days) | Area of leaf (0.01 mg/l, 2 °C, 12 days)
15.4 cm^2: Area of leaf (0.001 mg/l, 5 °C, 9 days)
12.5 cm^2: Area of leaf (0.01 mg/l, 2 °C, 9 days)
